Results reported in article PMC6499206, “Quantification of Volatile Metabolites Derived From Garlic (Allium sativum) in Human Urine” (Frontiers in Nutrition, 2019).

Experiment: Quantification of garlic-derived metabolites in human urine after ingestion of 3 g raw garlic (SIDA, SAFE, HRGC-MS / HRGC-GC-MS)
Assay type: in vivo
Conditions: human urine; also refs 5, 16
From the text: Human urine samples were obtained from 18 volunteers (age 22–38 years, mean 27 years; 11 females, 7 males); thereby, one volunteer conducted the whole experimental series twice. At the time of examination, volunteers reported no known illness that might have potentially influenced the metabolism or the excretion of urine. The test persons were instructed to avoid foods that were rich in sulfur-containing substances at the testing day as well as 2 days preceding the testing day, namely garlic, onion, wild garlic, chives, cabbage, and leek, and were only allowed to consume the garlic sample provided in the course of the experiments. Additionally, subjects were asked to keep records of the food (including food supplements) and beverages they consumed during these 3 testing days. Generally, the overall panelists' requirements were in accordance with our previous studies ([5], [16]).
On the sampling day, the outer garlic cloves of a whole garlic bulb were peeled and cut into ~3 mm cubes by using a garlic cutter (Genius GmbH, Limburg/Lahn, Germany). Subsequently these cubes were thoroughly mixed and aliquoted into 3 g portions. Three to four test persons conducted the experiment at the same day. Each test person was asked to ingest a garlic portion of 3 g. In total, eight consecutive urine samples were provided by each test person, comprising one whole urine set. The samples were collected in sterile brown glass bottles, with sampling times as follows: one sample was provided directly prior to garlic consumption. The series of the second to eighth sample was then obtained at about 0.5, 1, 2, 4, 6, 8, and 24 h after garlic consumption, respectively. Between the first urine sample (prior to garlic consumption) and the seventh urine sample (8 h after garlic consumption) test persons only spent urine at the specific time points mentioned before. Another sample was provided at the next morning (24 h after garlic consumption). Between the samples provided 8 and 24 h after garlic consumption no urine was collected. All samples were immediately placed into a −80°C freezer and were kept frozen until further analysis.
The samples of each set were termed according to their sampling time. The following list provides the time intervals that are related to the respective sample name: • - pre: before garlic consumption • - 0.5 h post: 0.4–0.8 h after garlic consumption • - 1 h post: 0.9–1.3 h after garlic consumption • - 2 h post: 1.8 h−2.2 h after garlic consumption • - 4 h post: 3.8–4.4 h after garlic consumption • - 6 h post: 5.8–6.4 h after garlic consumption • - 8 h post: 7.8–8.4 h after garlic consumption • - 24 h post: 23.8–25.6 h after garlic consumption
A creatinine kit (Labor+Technik Eberhard Lehmann GmbH, Berlin, Germany) was used to determine the creatinine content in each urine sample. The determination principle of this kit is based on the reaction of creatinine with picric acid under basic conditions (Jaffé reaction). The formed complex was detected photometrically at a wavelength of 492 nm.
For quantification purposes, the deuterated standards ^2H3-AMS, ^2H3-AMSO, and ^2H3-AMSO2 were added to the sample and stirred for 10 min. Subsequently, DCM was added in a ratio of 1:2 (DCM/human urine; v/v) and this solution was stirred for further 30 min at room temperature. To isolate the volatile fraction from the urine samples we then applied SAFE-distillation ([17]), thereby distilling the respective samples at 50°C. After completion of the distillation process, 10 mL of DCM were applied in each case to rinse the SAFE apparatus and to ensure complete transition of the volatile compounds. This process was repeated with another 10 mL of DCM. After thawing, the obtained aqueous distillate phase was extracted three times with 25 mL DCM. The organic phases were combined, dried over anhydrous Na2SO4 and concentrated to a total volume of 100 μL by means of Vigreux distillation and subsequent micro-distillation at 50°C. […]

For `C=CCS(=O)(=O)CC=C` [diallyl sulfone], the “presence as metabolite in human urine after garlic consumption” value was “exclude the presence”.
